Measured values from patent publication US11566007B2, “Ras inhibitors” (Revolution Medicines, Inc., priority 2019, dated 2023).
Read-outs that look alike come from different tables or passages of the source.

Legend:
[1] = from CCn1c(-c2cccnc2[C@H](C)OC)c(CC(C)(C)CO)c2cc(C3=CCCN(CC(NC(=O)OC(C)(C)C)C(=O)N4CCC[C@@H](C(=O)O)N4)C3)ccc21; ester bond; EDCI.HCl/HOBt/DIPEA; DCM; 7.14 mM; 30.0 °C; 16.0 h
[2] = 18-membered ring
[3] = system: NCI-H358 (K-Ras G12C); assay: CellTiter-Glo cell viability assay, NCI-H358; assay type: cell-based, human; conditions: Homo sapiens, NCI-H358, 120 h, NCI-H358, 5-day treatment; class symbols; read-out: Additional H358 Cell Viability assay data (K-Ras G12C, IC50)
Method in brief: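 Compounds dispensed directly onto seeded K-Ras mutant cells; plates read on day 5 after ~30 min equilibration to room temperature, by CellTiter-Glo luminescence. Signal normalized as (sample/mean DMSO)×100, then fitted to a four-parameter logistic curve.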

[4] = biological target: K-Ras G12C (Homo sapiens (Human), UniProt P01116+P62937, G12C); assay: Ras-Raf (BRAF RBD) disruption / FRET / MOA assay, KRAS G12C; assay type: biochemical; conditions: KRAS G12C; Ras-Raf disruption/FRET/MOA assay; read-out: IC50* KRAS G12C FRET data
Chain of K-Ras G12C (P01116-2 other isoform, or with tags, fused parts or gaps G12C): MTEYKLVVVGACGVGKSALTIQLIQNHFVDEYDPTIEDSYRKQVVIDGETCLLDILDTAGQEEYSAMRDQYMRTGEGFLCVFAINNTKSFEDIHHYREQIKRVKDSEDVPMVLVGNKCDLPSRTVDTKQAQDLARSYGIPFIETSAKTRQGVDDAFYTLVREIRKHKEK
Chain of K-Ras G12C (P62937 whole entry): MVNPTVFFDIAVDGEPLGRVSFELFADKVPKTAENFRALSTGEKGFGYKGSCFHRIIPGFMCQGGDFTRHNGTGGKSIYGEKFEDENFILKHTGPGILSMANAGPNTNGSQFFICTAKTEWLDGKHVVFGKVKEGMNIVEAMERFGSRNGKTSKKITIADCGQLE
Method in brief: (§1)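 A 10-point, 3-fold dilution series topping at 30 μM final was incubated 3 h at 25° C with the Ras/cyclophilin A/BRAF RBD mixture.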

[5] = biological target: K-Ras G13C (Homo sapiens (Human), UniProt P01116+P62937, G13C); assay: Ras-Raf (BRAF RBD) disruption / FRET / MOA assay, KRAS G13C; assay type: biochemical; conditions: KRAS G13C; Ras-Raf disruption/FRET/MOA assay; read-out: IC50* KRAS G13C FRET data
Chain of K-Ras G13C (P01116-2 other isoform, or with tags, fused parts or gaps G13C): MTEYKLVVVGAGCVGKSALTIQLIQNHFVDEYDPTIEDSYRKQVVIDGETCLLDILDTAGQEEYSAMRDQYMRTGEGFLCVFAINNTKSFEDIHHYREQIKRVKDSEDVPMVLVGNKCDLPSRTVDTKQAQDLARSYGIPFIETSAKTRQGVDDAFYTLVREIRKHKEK
Chain of K-Ras G13C (P62937 whole entry): as the sequence (P62937 whole entry) above
Method in brief: as §1

[6] = biological target: KRAS G12S (Homo sapiens (Human), UniProt P01116+P62937, G12S); assay: Ras-Raf (BRAF RBD) disruption / FRET / MOA assay, KRAS G12S; assay type: biochemical; conditions: Ras-Raf disruption/FRET/MOA assay; class symbols; read-out: KRAS G12S FRET data IC50
Chain of KRAS G12S (P01116-2 other isoform, or with tags, fused parts or gaps G12S): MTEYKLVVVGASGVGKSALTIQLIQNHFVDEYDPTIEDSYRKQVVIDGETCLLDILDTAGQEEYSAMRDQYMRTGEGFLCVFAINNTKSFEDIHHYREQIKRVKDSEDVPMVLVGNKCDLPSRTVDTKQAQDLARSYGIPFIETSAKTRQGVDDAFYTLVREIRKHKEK
Chain of KRAS G12S (P62937 whole entry): as the sequence (P62937 whole entry) above
Method in brief: as §1

[7] = biological target: KRAS G12D (Homo sapiens (Human), UniProt P01116+P62937, G12D); assay: Ras-Raf (BRAF RBD) disruption / FRET / MOA assay, KRAS G12D; assay type: biochemical; conditions: Ras-Raf disruption/FRET/MOA assay; class symbols; read-out: KRAS G12D FRET data IC50
Chain of KRAS G12D (P01116-2 other isoform, or with tags, fused parts or gaps G12D): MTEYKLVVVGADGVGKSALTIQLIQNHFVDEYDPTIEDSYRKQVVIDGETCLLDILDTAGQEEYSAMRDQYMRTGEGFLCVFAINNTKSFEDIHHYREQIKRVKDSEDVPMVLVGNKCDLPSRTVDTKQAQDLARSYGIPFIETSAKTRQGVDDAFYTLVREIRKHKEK
Chain of KRAS G12D (P62937 whole entry): as the sequence (P62937 whole entry) above
Method in brief: as §1

[8] = biological target: KRAS G12V (Homo sapiens (Human), UniProt P01116+P62937, G12V); assay: Ras-Raf (BRAF RBD) disruption / FRET / MOA assay, KRAS G12V; assay type: biochemical; conditions: read-out: IC50* KRAS G12V FRET data
Chain of KRAS G12V (P01116-2 other isoform, or with tags, fused parts or gaps G12V): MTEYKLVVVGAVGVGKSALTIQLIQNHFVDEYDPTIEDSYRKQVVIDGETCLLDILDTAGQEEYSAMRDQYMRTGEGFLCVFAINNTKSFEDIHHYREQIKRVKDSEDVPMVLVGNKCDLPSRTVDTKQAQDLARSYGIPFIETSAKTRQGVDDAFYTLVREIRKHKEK
Chain of KRAS G12V (P62937 whole entry): as the sequence (P62937 whole entry) above
Method in brief: as §1

[9] = biological target: KRAS WT (Homo sapiens (Human), UniProt P01116+P62937); assay: Ras-Raf (BRAF RBD) disruption / FRET / MOA assay, KRAS WT; assay type: biochemical; conditions: read-out: IC50* KRAS WT FRET data
Chain of KRAS WT (P01116-2 other isoform, or with tags, fused parts or gaps): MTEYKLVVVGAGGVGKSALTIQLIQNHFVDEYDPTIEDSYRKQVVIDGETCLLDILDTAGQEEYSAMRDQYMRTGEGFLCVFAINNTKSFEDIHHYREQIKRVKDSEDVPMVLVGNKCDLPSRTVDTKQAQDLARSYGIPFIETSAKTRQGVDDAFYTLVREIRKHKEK
Chain of KRAS WT (P62937 whole entry): as the sequence (P62937 whole entry) above
Method in brief: as §1

[10] = biological target: KRAS G13D (Homo sapiens (Human), UniProt P01116+P62937, G13D); assay: Ras-Raf (BRAF RBD) disruption / FRET / MOA assay, KRAS G13D; assay type: biochemical; conditions: read-out: IC50* KRAS G13D FRET data
Chain of KRAS G13D (P01116-2 other isoform, or with tags, fused parts or gaps G13D): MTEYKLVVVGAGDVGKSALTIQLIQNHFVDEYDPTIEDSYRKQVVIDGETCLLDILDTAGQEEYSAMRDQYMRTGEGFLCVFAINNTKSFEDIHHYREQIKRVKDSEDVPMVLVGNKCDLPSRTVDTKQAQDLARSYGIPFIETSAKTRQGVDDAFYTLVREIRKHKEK
Chain of KRAS G13D (P62937 whole entry): as the sequence (P62937 whole entry) above
Method in brief: as §1

[11] = biological target: KRAS Q61H (Homo sapiens (Human), UniProt P01116+P62937, Q61H); assay: Ras-Raf (BRAF RBD) disruption / FRET / MOA assay, KRAS Q61H; assay type: biochemical; conditions: Ras-Raf disruption/FRET/MOA assay; class symbols; read-out: KRAS Q61H FRET data IC50
Chain of KRAS Q61H (P01116-2 other isoform, or with tags, fused parts or gaps Q61H): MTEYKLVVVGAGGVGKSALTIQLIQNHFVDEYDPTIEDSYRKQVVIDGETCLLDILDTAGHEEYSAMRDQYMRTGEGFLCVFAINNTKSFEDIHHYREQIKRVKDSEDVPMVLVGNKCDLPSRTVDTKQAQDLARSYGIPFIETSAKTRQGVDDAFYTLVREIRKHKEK
Chain of KRAS Q61H (P62937 whole entry): as the sequence (P62937 whole entry) above
Method in brief: (§2)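 Compounds (30 μM top final, 10-point 3-fold dilutions) incubated 3 h at 25° C with nucleotide-loaded Ras, cyclophilin A and BRAF RBD. Detection with 10 nM anti-His Eu-W1024 and 50 nM anti-GST allophycocyanin over another 1.5 h. Lowered TR-FRET ratio relative to DMSO wells gives IC50.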

[12] = biological target: NRAS G12C (Homo sapiens (Human), UniProt P01111+P62937, G12C); assay: Ras-Raf (BRAF RBD) disruption / FRET / MOA assay, NRAS G12C; assay type: biochemical; conditions: read-out: IC50* NRAS G12C FRET data
Chain of NRAS G12C (P01111 whole entry G12C): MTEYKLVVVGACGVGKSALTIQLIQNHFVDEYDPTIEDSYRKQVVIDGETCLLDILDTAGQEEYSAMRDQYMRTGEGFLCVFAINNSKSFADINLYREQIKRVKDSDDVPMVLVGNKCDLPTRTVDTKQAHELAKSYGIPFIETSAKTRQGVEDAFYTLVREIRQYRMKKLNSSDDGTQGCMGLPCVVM
Chain of NRAS G12C (P62937 whole entry): as the sequence (P62937 whole entry) above
Method in brief: as §1

[13] = biological target: NRAS Q61R (Homo sapiens (Human), UniProt P01111+P62937, Q61R); assay: Ras-Raf (BRAF RBD) disruption / FRET / MOA assay, NRAS Q61R; assay type: biochemical; conditions: NRAS Q61R; Ras-Raf disruption/FRET/MOA assay; read-out: IC50* NRAS Q61R FRET data
Chain of NRAS Q61R (P01111 whole entry Q61R): as the sequence (P01111 whole entry G12C) above, with C12G, Q61R counted along it
Chain of NRAS Q61R (P62937 whole entry): as the sequence (P62937 whole entry) above
Method in brief: as §2

[14] = biological target: NRAS Q61K (Homo sapiens (Human), UniProt P01111+P62937, Q61K); assay: Ras-Raf (BRAF RBD) disruption / FRET / MOA assay, NRAS Q61K; assay type: biochemical; conditions: NRAS Q61K; Ras-Raf disruption/FRET/MOA assay; read-out: IC50* NRAS Q61K FRET data
Chain of NRAS Q61K (P01111 whole entry Q61K): as the sequence (P01111 whole entry G12C) above, with C12G, Q61K counted along it
Chain of NRAS Q61K (P62937 whole entry): as the sequence (P62937 whole entry) above
Method in brief: as §2

[15] = biological target: NRAS WT (Homo sapiens (Human), UniProt P01111+P62937); assay: Ras-Raf (BRAF RBD) disruption / FRET / MOA assay, NRAS WT; assay type: biochemical; conditions: read-out: IC50* NRAS WT FRET data
Chain of NRAS WT (P01111 whole entry): as the sequence (P01111 whole entry G12C) above, with C12G counted along it
Chain of NRAS WT (P62937 whole entry): as the sequence (P62937 whole entry) above
Method in brief: as §2

Compound	IC50 [3] [µM]	IC50 [4] [µM]	IC50 [5] [µM]	IC50 [6] [µM]	IC50 [7] [µM]	IC50 [8] [µM]	IC50 [9] [µM]	IC50 [10] [µM]	IC50 [11] [µM]	IC50 [12] [µM]	IC50 [13] [µM]	IC50 [14] [µM]	IC50 [15] [µM]	further results
CCn1c(-c2cccnc2[C@H](C)OC)c2c3cc(ccc31)C1=CCCN(C1)CC(NC(=O)OC(C)(C)C)C(=O)N1CCC[C@H](N1)C(=O)OCC(C)(C)C2 (stereo partly shown)														ring closure, yield of all isomers [1]: 40%
CCn1c(-c2cccnc2[C@H](C)OC)c2c3cc(ccc31)N1CCO[C@@H](C[C@H](NC(=O)OCc3ccccc3)C(=O)N3CCC[C@H](N3)C(=O)OCC(C)(C)C2)C1														ring closure, isolated yield ([2]; from CCn1c(-c2cccnc2[C@H](C)OC)c(CC(C)(C)CO)c2cc(N3CCO[C@@H](C[C@H](NC(=O)OCc4ccccc4)C(=O)N4CCC[C@@H](C(=O)O)N4)C3)ccc21, ester bond, EDCI/HOBt/DIPEA, DCM, 12.75 mM, 25.0 °C): 66%
CO[C@@H](C)c1ncc(N2CCN(C(=O)OCc3ccccc3)CC2)cc1-c1c2c3cc(ccc3n1CC(F)(F)F)-c1cccc(c1)C[C@H](NC(=O)OC(C)(C)C)C(=O)N1CCC[C@H](N1)C(=O)OCC(C)(C)C2														ring closure, isolated yield ([2]; from CO[C@@H](C)c1ncc(N2CCN(C(=O)OCc3ccccc3)CC2)cc1-c1c(CC(C)(C)CO)c2cc(-c3cccc(C[C@H](NC(=O)OC(C)(C)C)C(=O)N4CCC[C@@H](C(=O)O)N4)c3)ccc2n1CC(F)(F)F, ester bond, EDCI/HOBt/DIPEA, DCM, 9.9 mM): 67.9%
CO[C@@H](C)c1ncccc1-c1c2c3cc(ccc3n1CC(F)(F)F)N1CCO[C@@H](C[C@H](NC(=O)OCc3ccccc3)C(=O)N3CCC[C@H](N3)C(=O)OCC(C)(C)C2)C1														ring closure, isolated yield ([2]; from CO[C@@H](C)c1ncccc1-c1c(CC(C)(C)CO)c2cc(N3CCO[C@@H](C[C@H](NC(=O)OCc4ccccc4)C(=O)N4CCC[C@@H](C(=O)O)N4)C3)ccc2n1CC(F)(F)F, ester bond, EDCI/HOBt/DIPEA, DCM, 11.25 mM): 74%
C=CC(=O)N1CC[C@H](C(=O)N(C)[C@H](C(=O)N[C@H]2Cc3cc(O)cc(c3)-c3cc4c(c(-c5ccccc5CCOC)n(CC)c4cn3)CC(C)(C)COC(=O)[C@@H]3CCCN(N3)C2=O)C(C)C)C1 [Example A102]	> 1	1 to 10	> 10	> 10	> 10	> 10	> 10	> 10	1 to 10	1 to 10	> 10	> 10	> 10	
C=CC(=O)N1CC[C@H](C(=O)N(C)[C@H](C(=O)N[C@H]2Cc3cc(O)cc(c3)-c3ccc4nc(-c5cccnc5[C@H](C)OC)n(c4c3)CC(C)(C)COC(=O)[C@@H]3CCCN(N3)C2=O)C(C)C)C1 [Example A242]	> 1	1 to 10	1 to 10	> 10	> 10	1 to 10	> 10	> 10	1 to 10	1 to 10	> 10	> 10	> 10	
C=CC(=O)N1CC[C@H](C(=O)N(C)[C@H](C(=O)N[C@H]2Cc3cc(O)cc(c3)-c3ccc4nc(-c5cccnc5COC)c(n4c3)CC(C)(C)COC(=O)[C@@H]3CCCN(N3)C2=O)C(C)C)C1 [Example A243]	> 1	> 10	> 10	> 10	> 10	> 10	> 10	> 10	> 10	> 10	> 10	> 10	> 10	
C=CC(=O)N1CC[C@H](C(=O)N(C)[C@H](C(=O)NC2C[C@@H]3CN(CCO3)c3ccc4c(c3)c(c(-c3cccnc3[C@H](C)OC)n4CC)CC(C)(C)COC(=O)[C@@H]3CC(Br)CN(N3)C2=O)C(C)C)C1 (stereo partly shown) [Example A313]	> 1	1 to 10	> 10	> 10	> 10	> 10	> 10	> 10	> 10	1 to 10	> 10	> 10	> 10	
C=CC(=O)N1CC[C@H](C(=O)N(C)[C@H](C(=O)N[C@H]2Cc3cccc(c3)-c3ccc4c(c3)c(c(-c3cnn(C5CCN(C)CC5)c3[C@H](C)OC)n4CC)CC(C)(C)COC(=O)[C@@H]3CCCN(N3)C2=O)C(C)C)C1 [Example A482]	0.1 to 1	> 10	> 10	> 10	> 10	> 10	> 10	> 10	> 10	> 10	> 10	> 10	> 10	
tert-butyl ((6^3S,4S)-1^1-ethyl-1^2-(2-((S)-1-methoxyethyl)pyridin-3-yl)-10,10-dimethyl-5,7-dioxo-6^1,6^2,6^3,6^4,6^5,6^6-hexahydro-1^1H-8-oxa-2(5,2)-oxazola-1(5,3)-indola-6(1,3)-pyridazinacycloundecaphane-4-yl)carbamate														ring closure, isolated yield ([2]; ester bond, EDCI/HOBt/DIPEA, DCM, 13.7 mM, 0.0 °C): 56.4%
tert-butyl ((6^3S,4S)-1^1-ethyl-1^2-(2-(methoxymethyl)phenyl)-10,10-dimethyl-2^5-nitro-5,7-dioxo-6^1,6^2,6^3,6^4,6^5,6^6-hexahydro-1^1H-8-oxa-1(5,3)-indola-6(1,3)-pyridazina-2(1,3)-benzenacycloundecaphane-4-yl)carbamate														ring closure, isolated yield ([2]; ester bond, EDCI/HOBt/DIPEA, DCM, 6.4 mM): 73%
tert-butyl ((6^3S,4S)-2^5-(difluoromethyl)-1^1-ethyl-1^2-(2-((S)-1-methoxyethyl)pyridin-3-yl)-10,10-dimethyl-5,7-dioxo-6^1,6^2,6^3,6^4,6^5,6^6-hexahydro-1^1H-8-oxa-1(5,3)-indola-6(1,3)-pyridazina-2(1,3)-benzenacycloundecaphane-4-yl)carbamate														ring closure, isolated yield ([2]; ester bond, EDCI/HOBt/DIPEA, DCM): 51%
tert-butyl ((6^3S,4S,Z)-1^1-ethyl-1^2-(2-((S)-1-methoxyethyl)pyridin-3-yl)-2^1,10,10-trimethyl-5,7-d ioxo-6^1,6^2,6^3,6^4,6^5,6^6-hexahydro-1^1H,2^1H-8-oxa-1(5,3)-indola-6(1,3)-pyridazina-2(5,3)-triazolacycloundecaphane-4-yl)carbamate														ring closure, isolated yield ([2]; cc_pd bond, XPhos Pd G3/XPhos/K3PO4, dioxane/H2O 5:1, 71.7 mM, 75.0 °C): 56.8%
